{"source": "paper PMC6016545", "about": "(Journal of medicinal chemistry, 2016)", "key": {"PSMA [1]": {"biological_target": "T1, PSMA (Homo sapiens, UniProt Q04609)", "T1 sequence (Q04609 whole entry)": "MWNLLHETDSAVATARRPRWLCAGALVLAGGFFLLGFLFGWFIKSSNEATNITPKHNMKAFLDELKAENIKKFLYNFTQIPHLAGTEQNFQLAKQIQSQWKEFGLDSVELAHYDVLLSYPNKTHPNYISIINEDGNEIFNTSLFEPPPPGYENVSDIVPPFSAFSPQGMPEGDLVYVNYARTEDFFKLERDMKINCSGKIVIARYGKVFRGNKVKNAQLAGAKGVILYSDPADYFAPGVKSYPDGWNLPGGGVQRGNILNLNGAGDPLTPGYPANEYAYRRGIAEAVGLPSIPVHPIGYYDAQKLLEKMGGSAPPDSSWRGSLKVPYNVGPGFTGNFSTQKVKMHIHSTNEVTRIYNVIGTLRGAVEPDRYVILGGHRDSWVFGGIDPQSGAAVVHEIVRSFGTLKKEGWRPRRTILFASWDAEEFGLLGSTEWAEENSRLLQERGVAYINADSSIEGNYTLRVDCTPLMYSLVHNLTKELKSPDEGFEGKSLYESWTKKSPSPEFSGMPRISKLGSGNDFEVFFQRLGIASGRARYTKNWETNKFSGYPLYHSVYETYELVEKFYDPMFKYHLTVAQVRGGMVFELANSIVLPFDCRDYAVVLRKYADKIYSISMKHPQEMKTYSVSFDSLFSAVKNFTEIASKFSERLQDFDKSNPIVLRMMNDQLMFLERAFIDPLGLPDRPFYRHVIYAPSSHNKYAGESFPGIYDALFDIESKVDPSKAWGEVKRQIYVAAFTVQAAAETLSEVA", "assay": "PSMA inhibition, IC50 determination"}, "PSMA(+) PC3-PIP cells": {"system": "PSMA(+) PC3-PIP cells", "details": "cited from earlier work"}, "PSMA [2]": {"biological_target": "T1, PSMA", "assay": "Mode of inhibition study", "details": "reversible, slowly reversible, or irreversible"}}, "note": "Read-outs that look alike come from different tables or passages of the source."}
{"smiles": "NCCCCCC(=O)NCCCCCC(=O)N[C@@H](CCC(=O)N[C@H](CCCOP(=O)(O)NC(CCC(=O)O)C(=O)O)C(=O)O)C(=O)O", "note": "(stereo partly drawn) [compound 3, 2-(((S)-((4R)-4-(4-(6-(6-Aminohexanamido)-hexanamido)-4-carboxybutanamido)-4-carboxybutoxy)-(hydroxy)phosphoryl)amino)pentanedioic Acid]", "values": [{"measurement": "IC50", "setting": "PSMA [1]", "result": 7800, "unit": "pM"}]}
{"smiles": "O=C(O)CCC(NC(=O)NC(CCCCNC(=O)c1ccc([18F])nc1)C(=O)O)C(=O)O", "note": "(stereo not shown) [[^18F]DCFPyL, 2-(3-(1-carboxy-5-[(6-[^18F]-fluoropyridine-3-carbonyl)amino]pentyl)ureido)pentanedioic acid]", "values": [{"measurement": "liver uptake", "setting": "PSMA(+) PC3-PIP cells; 2 h", "result": 2.14, "unit": "%"}, {"measurement": "renal uptake", "setting": "PSMA(+) PC3-PIP cells; 2 h", "result": 15.7, "unit": "%"}, {"measurement": "tumor uptake", "setting": "PSMA(+) PC3-PIP cells; 2 h in PC3-PIP cells", "result": 39.4, "unit": "%"}]}
{"smiles": "O=C(O)CCC(NP(=O)(O)OCCC[C@@H](NC(=O)CC[C@H](NC(=O)CCCCCNC(=O)CCCCCNC(=O)c1ccc(F)cc1)C(=O)O)C(=O)O)C(=O)O", "note": "(stereo partly drawn) [compound 6, 2-(((S)-(((22R)-17,22-Dicarboxy-1-(4-fluoro-phenyl)-1,8,15,20-tetraoxo-2,9,16,21-tetraazapentacosan-25-yl)oxy)(hydroxy)phosphoryl)amino)pentanedioic Acid]", "values": [{"measurement": "IC50", "setting": "PSMA [1]", "result": 900, "unit": "pM"}, {"measurement": "mode of binding to PSMA", "setting": "PSMA [2]", "result": "irreversible"}]}
{"smiles": "O=C(O)CC[C@H](NC(=O)N[C@@H](CSCc1ccc([18F])cc1)C(=O)O)C(=O)O", "note": "[[^18F]DCFBC, N[N-[(S)-1,3-dicarboxypropyl]carbamoyl]-4-[^18F] fluorobenzyl-L-cysteine]", "values": [{"measurement": "tumor uptake", "setting": "PSMA(+) PC3-PIP cells; PSMA(+) PC3-PIP cells", "result": 4.7, "unit": "%"}, {"measurement": "tumor/blood ratio", "setting": "PSMA(+) PC3-PIP cells; PSMA(+) PC3-PIP cells", "result": 13}]}
{"smiles": "O=C(O)CC[C@H](NP(=O)(O)OCCC[C@H](NC(=O)CC[C@H](NC(=O)CCCCCNC(=O)c1ccc(F)cc1)C(=O)O)C(=O)O)C(=O)O", "note": "[compound 5]", "values": [{"measurement": "IC50", "setting": "PSMA [1]", "result": 400, "unit": "pM"}, {"measurement": "mode of binding to PSMA", "setting": "PSMA [2]", "result": "irreversible"}]}
